Counter-ions that a name gives are not always drawn.
Tests used:
[1] = tested on: model of diabetic neuropathy caused by streptozocin (STZ); test: Mechanical hyperalgesia (paw pressure vocalisation threshold) in model of diabetic neuropathy caused by streptozocin; format: in vivo, rat; conditions: for effect of reference treatments compared with the compound: STZ rats
Experimental: The effects of 4-{3-[cis-hexahydrocyclopenta[c]pyrrol-2(1H)-yl]propoxy}benzamide and of two reference treatments for neuropathic pain (gabapentin and pregabalin) were studied in the rat, in the model of diabetic neuropathy caused by streptozocin (STZ).
In rats, administration of high-dose STZ (>35 mg/kg) causes diabetes which is similar to hyperglycaemic diabetes mellitus in humans. This is brought about by histopathological changes in the beta cells of islets of Langerhans and is associated with neuropathic pain. This pain is made manifest especially by mechanical hyperalgesia which can be attested by the lowering of the animal's vocalisation threshold when an increasing pressure is applied to the paw (Courteix et al., Pain, 1993, 53(1):81-8). During the test, a weight is placed on the rat's paw; its weight (in grams) increases until the animal vocalises. In this experiment, 21 days after the intraperitoneal injection of STZ (72 mg/kg), the rats develop diabetes characterised especially by hyperglycaemia (controlled during the experiment by injection of insulin) and associated with mechanical hyperalgesia. Indeed, the vocalisation threshold of the rats is lowered by half compared to the threshold which those animals had prior to injection of STZ (FIG. 1).

[2] = tested on: mechanical hyperalgesia caused by chronic constriction (CCI) of the sciatic nerve; test: Mechanical hyperalgesia (vocalisation threshold) in model of neuropathy caused by chronic constriction (CCI) of the sciatic nerve; format: in vivo, rat; conditions: for reversal of the hyperalgesia (vocalisation threshold versus before the procedure): after 4 days of chronic treatment
Excerpt: The effects of 4-{3-[cis-hexahydrocyclopenta[c]pyrrol-2(1H)-yl]propoxy}benzamide and of gabapentin were studied on the mechanical hyperalgesia caused in the rat by chronic constriction (CCI) of the sciatic nerve.
This model of post-traumatic neuropathic pain closely reproduces the symptoms of neuropathic pain which can be observed in humans, namely mechanical and thermal hyperalgesia, mechanical allodynia and spontaneous pain (Bennett and Xie, Pain, 1988, 33(1):87-107; Munger et al., Exp Neurol, 1992, 118(2):204-14; Kim et al., Brain Res, 1997, 113(2):200-6.).

[3] = tested on: thermal allodynia after administration of oxaliplatin (OXA); test: Thermal (cold) allodynia, tail withdrawal time in cold bath at 10° C, model of neuropathy caused by oxaliplatin; format: in vivo, rat; conditions: for reversal of the allodynia (tail withdrawal time versus before the procedure): oxaliplatin 6 mg/kg i.p.
Excerpt: The effects of 4-{3-[cis-hexahydrocyclopenta[c]pyrrol-2(1H)-yl]propoxy}benzamide and of two reference treatments for neuropathic pain (gabapentin and pregabalin) were studied on the thermal allodynia which occurs in rats after administration of oxaliplatin (OXA). Oxaliplatin is a synthetic anticancer medication from the group of agents derived from platinum, especially used in the treatment of cancers of the colon and rectum.
In the rat, acute administration of oxaliplatin specifically causes cold hyperalgesia and allodynia in the subsequent 24 hours, which lasts for several days. This animal model therefore closely mimics the painful symptoms observed in humans after infusion of oxaliplatin, especially the rapid appearance of intense sensory disturbances caused by cold, of the hyperalgesic and allodynic type (Ling et al. Toxicology. 2007; 234(3):176-84).
The results of this study confirm that, 36 hours after acute intraperitoneal administration of oxaliplatin (6 mg/kg), the rats develop cold allodynia, reflected by very rapid withdrawal of their tail when it is placed in a cold bath at 10° C. Indeed, this withdrawal time is, on average, half as long as that of the rats before administration of oxaliplatin (FIG. 3).

[4] = tested on: mechanical hyperalgesia caused by chronic constriction (CCI) of the sciatic nerve; test: Mechanical hyperalgesia (vocalisation threshold) in CCI model, compound and agomelatine on their own or in association; format: in vivo, rat; conditions: every day for 5 days, S 0.3 mg of base/kg per os, agomelatine 10 mg/kg i.p., alone or in association
Experimental: The effects of 4-{3-[cis-hexahydrocyclopenta[c]pyrrol-2(1H)-yl]propoxy}benzamide and agomelatine, administered on their own or in association, were studied on the mechanical hyperalgesia caused in the rat by chronic constriction (CCI) of the sciatic nerve (see Example B).
The vocalisation threshold was measured in the animals every day for 5 days, before and 45 minutes after the administration of 4-{3-[cis-hexahydrocyclopenta[c]pyrrol-2(1H)-yl]-propoxy}benzamide hydrochloride at a dose of 0.3 mg of base/kg per os (the compound being referred to as S in FIG. 4) and agomelatine at a dose of 10 mg/kg i.p., on their own or in association.

[5] = tested on: anxiety associated with the neuropathic pain caused by chronic constriction (CCI) of the sciatic nerve; test: Anxiety associated with neuropathic pain caused by CCI (time in open parts of cylindrical corridor); format: in vivo; conditions: CCI rat, 4 weeks after constriction
Experimental: The effects of 4-{3-[cis-hexahydrocyclopenta[c]pyrrol-2(1H)-yl]propoxy}benzamide were studied on the anxiety associated with the neuropathic pain caused by chronic constriction (CCI) of the sciatic nerve in the rat.
In this study, the rats are placed for 5 minutes in a cylindrical corridor which has two parts closed off by a wall and two opposite parts which are open. The test creates a conflict between the rodent's natural desire to explore and its fear of open spaces which make it vulnerable to predators. Anxiety is measured in this test by the time spent by the rat in exploring the open parts of the cylindrical corridor (Bleickardt et al. Psychopharmacology (Berl), 2009, 202(4):711-8; Alba-Delgado et al. Biol. Psychiatry, 2013, 73(1):54-62).

[6] = tested on: depression associated with the neuropathic pain caused by CCI; test: Depression associated with neuropathic pain caused by CCI (duration of immobility in cylinder filled with water); format: in vivo; conditions: CCI rat, 4 weeks after constriction
Experimental: The effects of 4-{3-[cis-hexahydrocyclopenta[c]pyrrol-2(1H)-yl]propoxy}benzamide were studied on the depression associated with the neuropathic pain caused by CCI in the rat. In this study, the rat is placed for 5 minutes in a cylinder filled with water, out of which it is unable to climb. After struggling in the water, the animal becomes immobile, reflecting “behavioural despair”, which occurs when the animal realises that it will not be able to escape. Depressive behaviour is measured in this test by the duration of immobility.

[7] = Clinical acceptability profile; format: in vivo, human

| SMILES | effect of reference treatments compared with the compound [1] | reversal of the hyperalgesia (vocalisation threshold versus before the procedure) [2] | reversal of the allodynia (tail withdrawal time versus before the procedure) [3] | anti-hyperalgesic effect (vocalisation threshold), chronic administration [4] | also measured |
| --- | --- | --- | --- | --- | --- |
| NCC1(CC(=O)O)CCCCC1 [gabapentin, reference compound] | entirely comparable | reversal is also observed | rapid reversal is also observed | – | – |
| COc1ccc2cccc(CCNC(C)=O)c2c1 [agomelatine, reference compound] | – | – | – | moderate and very inconstant anti-hyperalgesic effect | – |
| CC(C)C[C@H](CN)CC(=O)O [pregabalin, reference compound] | entirely comparable | – | rapid reversal is also observed | – | – |
| NC(=O)c1ccc(OCCCN2C[C@H]3CCC[C@H]3C2)cc1 [S, 4-{3-[cis-hexahydrocyclopenta[c]pyrrol-2(1H)-yl]propoxy}benzamide hydrochloride] | – | complete reversal of the hyperalgesia | complete reversal of the allodynia | moderate anti-hyperalgesic effect | value of the vocalisation threshold relative to non-diabetic animals ([1]; 3 mg of base per kg per os, from the second day of administration): the same as that of non-diabetic animals; vocalisation threshold compared to animals having been given the carrier ([1]; STZ 72 mg/kg i.p., 21 days after, 3 mg of base per kg per os): substantial and significant increase in the vocalisation threshold; anti-hyperalgesic effect (vocalisation threshold) ([2]; 12 days after CCI, 1 mg of base/kg per os): significant anti-hyperalgesic effect; anti-allodynic effect (tail withdrawal time, cold bath 10° C) ([3]; 36 hours after oxaliplatin 6 mg/kg i.p., 0.3 mg of base/kg per os, from D1, 1 hour after a single administration): significant anti-allodynic effect |
| NC(=O)c1ccc(OCCCN2C[C@H]3CCC[C@H]3C2)cc1 [4-{3-[cis-hexahydrocyclopenta[c]pyrrol-2(1H)-yl]-propoxy}benzamide] | – | – | – | – | beneficial effect on vocalisation threshold over time ([1]; administered every day for 5 days): maintained over time; effects on the anxiety associated with the neuropathic pain [5]: beneficial effects; effects on the depression associated with the neuropathic pain [6]: beneficial effects; acceptability profile ([7]; healthy volunteers): good acceptability profile; acceptability profile ([7]; patients suffering from Alzheimer's disease): good acceptability profile |

Reference: patent US20160051513A1, “USE OF 4-BENZAMIDE IN THE TREATMENT OF NEUROPATHIC PAIN” (LES LABORATOIRES SERVIER, priority 2013, published 2016)
